Measured values reported in the supplement of paper PMC10307832.

Tests used:
Experiment in all cases: relative viability (nuclei count vs DMSO), 5 days (fraction); higher = more cells survive
[1] = compound: CC1=CN=C(N=C1C2=CNC(=C2)C(=O)N[C@H](CO)C3=CC(=CC=C3)Cl)NC4=C(C=C(C=C4)F)Cl [VX-11e]
Procedure, shortened: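 After an overnight hold at 37 °C, lung cancer cell lines in 1536-well plates were pinned with five library-drug doses (not always all listed), each √10 from the next, on vehicle-anchored plates. The cells stayed 5 days without fresh medium, then a one-step fix, permeabilisation and Hoechst stain preceded 4× imaging and MetaXpress nuclear counts. A plate passed only with control CV under 25% and at least one doubling. Viability is the median, over plates, of treated-well nuclei relative to vehicle-well nuclei.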

[2] = compound: CC1=CN=C(N=C1C2=CNC(=C2)C(=O)N[C@H](CO)C3=CC(=CC=C3)Cl)NC4=C(C=C(C=C4)F)Cl [VX-11e] + CC(=O)Nc1cccc(-n2c(=O)n(C3CC3)c(=O)c3c(Nc4ccc(I)cc4F)n(C)c(=O)c(C)c32)c1 [Trametinib] (partner 0.02 µM)
Procedure, shortened: (§1)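 For relative viability, nuclei counts in treated wells were divided by those in vehicle wells. Lung cancer cell lines had been pin-tool dosed in 1536-well plates the day after seeding and cultured for 5 days, then fixed and stained in one step (final 0.05% Triton X-100, 1% formaldehyde, 1 ug/ml Hoechst) and imaged at 4×. Doses were one drug alone or a fixed anchor-drug dose plus five library-drug doses (not always all listed) in √10 steps, and values are duplicate-plate medians.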

[3] = compound: CC1=CN=C(N=C1C2=CNC(=C2)C(=O)N[C@H](CO)C3=CC(=CC=C3)Cl)NC4=C(C=C(C=C4)F)Cl [VX-11e] + COc1cccc2cc(-c3nc([C@H]4CC[C@H](C(=O)O)CC4)n4ncnc(N)c34)[nH]c12 [OSI-027] (partner 0.5 µM)
Procedure, shortened: as §1

[4] = compound: CC1=CN=C(N=C1C2=CNC(=C2)C(=O)N[C@H](CO)C3=CC(=CC=C3)Cl)NC4=C(C=C(C=C4)F)Cl [VX-11e] + N=C(N)NC(=N)NCCc1ccccc1 [Phenformin] (partner 250 µM)
Procedure, shortened: as §1

| Cell Line | relative viability ([1]; 0.04 µM) | relative viability ([1]; 0.1265 µM) | relative viability ([1]; 0.4 µM) | relative viability ([1]; 1.265 µM) | relative viability ([1]; 4 µM) | relative viability ([2]; first compound 0.04 µM) | relative viability ([2]; first compound 0.1265 µM) | relative viability ([2]; first compound 0.4 µM) | relative viability ([2]; first compound 1.265 µM) | relative viability ([2]; first compound 4 µM) | relative viability ([3]; first compound 0.04 µM) | relative viability ([3]; first compound 0.1265 µM) | relative viability ([3]; first compound 0.4 µM) | relative viability ([3]; first compound 1.265 µM) | relative viability ([3]; first compound 4 µM) | relative viability ([4]; first compound 0.04 µM) | relative viability ([4]; first compound 0.1265 µM) | relative viability ([4]; first compound 1.265 µM) | relative viability ([4]; first compound 4 µM) | relative viability ([4]; first compound 0.4 µM) |
| --- | --- | --- | --- | --- | --- | --- | --- | --- | --- | --- | --- | --- | --- | --- | --- | --- | --- | --- | --- | --- |
| NCI-H2126 | 0.682 | 0.935 | 0.701 | 0.894 | 0.808 | 0.543 | 0.539 | 0.575 | 0.523 | 0.473 | 0.533 | 0.816 | 0.315 | 0.448 | 0.541 | 0.48 | 0.512 | 0.567 | 0.467 | – |
| NCI-H2170 | 0.862 | 0.938 | 0.871 | 0.913 | 0.949 | 0.805 | 0.913 | 0.89 | 0.854 | 0.819 | 0.589 | 0.624 | 0.155 | 0.649 | 0.453 | 0.41 | 0.431 | 0.445 | 0.39 | 0.21 |
| NCI-H2228 | 1.13 | 0.954 | 0.407 | 0.776 | 0.428 | 0.518 | 0.466 | 0.0868 | 0.273 | 0.128 | 0.617 | 0.54 | – | 0.216 | 0.123 | 0.352 | 0.376 | 0.151 | 0.135 | – |
| NCI-H2342 | 0.666 | 1.03 | 0.923 | 0.992 | 0.9 | – | 0.741 | 0.765 | 0.858 | 0.823 | 0.505 | 0.592 | 0.637 | 0.539 | 0.56 | 0.438 | 0.614 | 0.782 | 0.583 | 0.534 |
| NCI-H2347 | 1.01 | 1.05 | 0.853 | 0.752 | 0.469 | 0.282 | 0.261 | 0.297 | 0.241 | 0.267 | 0.418 | 0.467 | 0.337 | 0.255 | 0.21 | 0.462 | 0.488 | 0.43 | 0.211 | 0.206 |
| NCI-H2405 | 1.01 | 0.934 | 0.901 | 0.943 | 0.462 | 0.716 | 0.582 | 0.271 | 0.649 | 0.283 | 0.587 | 0.599 | 0.375 | 0.768 | 0.37 | 0.393 | 0.403 | 0.321 | 0.169 | 0.233 |
| NCI-H3122 | 1.02 | 0.959 | 0.696 | 0.888 | 0.564 | 0.236 | 0.239 | 0.177 | 0.29 | 0.148 | 0.892 | 0.898 | – | 0.513 | 0.147 | 0.408 | 0.358 | 0.335 | 0.254 | – |
| PC-3 [JPC-3] | 0.997 | 1.02 | 0.998 | 0.981 | 0.832 | 0.671 | 0.653 | 0.59 | 0.572 | 0.527 | 0.705 | 0.714 | 0.685 | 0.866 | 0.544 | 0.436 | 0.476 | 0.489 | 0.414 | 0.486 |
| PC-14 | 1.05 | 0.954 | 0.659 | 0.799 | 0.491 | 0.734 | 0.697 | 0.624 | 0.413 | 0.216 | 0.739 | 0.723 | 0.4 | 0.635 | 0.166 | 0.539 | 0.552 | 0.472 | 0.239 | 0.196 |
| RERF-LC-KJ | 1.05 | 0.895 | 0.99 | 0.989 | 0.789 | 0.888 | 0.766 | 0.897 | 0.921 | 0.667 | 0.442 | 0.474 | 0.528 | 0.504 | 0.327 | 0.403 | 0.427 | 0.372 | 0.315 | 0.408 |
| SK-LU-1 | 1.09 | 0.928 | 0.831 | 0.911 | 0.346 | 0.427 | 0.332 | 0.179 | 0.25 | 0.274 | 0.285 | 0.352 | – | 0.233 | 0.132 | 0.474 | 0.492 | 0.356 | 0.156 | – |
| SK-MES-1 | 1.06 | 0.921 | 0.886 | 0.748 | 0.35 | 0.566 | 0.486 | 0.399 | 0.338 | 0.27 | 0.585 | 0.436 | 0.632 | 0.552 | 0.185 | 0.693 | 0.64 | 0.618 | 0.368 | 0.694 |
| SW 900 | 0.722 | 0.768 | 0.182 | 0.473 | 0.541 | 0.826 | 0.761 | – | 0.483 | 0.605 | 0.276 | 0.448 | 0.12 | 0.304 | 0.246 | 0.504 | 0.456 | 0.213 | 0.318 | 0.216 |
| SW 1573 | 0.989 | 0.993 | 0.704 | 0.778 | 0.487 | – | 0.567 | 0.498 | 0.401 | 0.328 | 0.52 | 0.561 | 0.708 | 0.402 | 0.194 | 0.39 | 0.346 | 0.287 | 0.154 | 0.289 |
| UMC-11 | 0.757 | 0.909 | 0.962 | 0.791 | 0.889 | 0.563 | 0.626 | 0.563 | 0.357 | 0.551 | 0.36 | 0.435 | 0.41 | 0.379 | 0.428 | 0.291 | 0.309 | 0.301 | 0.283 | 0.28 |
